Laboratory results reported in US20240269298A1, “PHOSPHONYL DERIVATIVE, AND COMPOSITION AND PHARMACEUTICAL APPLICATION THEREOF” (XIZANG HAISCO PHARMACEUTICAL CO., LTD., priority 2021, published 2024).

Molecular target: T1, EGFR protein in NCI-H1975 EGFR-L858R-T790M-C797S cells (Homo sapiens, UniProt P00533, C797S/L858R/T790M)
T1 construct: expressed in transfected cells; host or cells: NCI-H1975 EGFR-L858R-T790M-C797S (kept under hygromycin selection)
Test: Degradation activity on EGFR protein in NCI-H1975 EGFR-L858R-T790M-C797S cells, Method II (western blot, 48 h)
Format: cell-based
Settings: 48 h incubation, EGFR protein relative to DMSO control
Experimental: Protein sample preparation: NCI-H1975 EGFR-L858R-T790M-C797S cells were cultured in an incubator at 37° C. with 5% CO2, and the culture medium was RPMI1640+10% FBS+100 μg/mL hygromycin. The cells in the logarithmic phase were collected, and the cell suspension was adjusted to an appropriate concentration with a hygromycin-free culture medium, plated on a 6-well plate at a density of 350000 cells/well and a volume of 2 mL, and cultured overnight in an incubator at 37° C. with 5% CO2. The next day, the compounds at different concentrations were added. DMSO control wells were provided, wherein the concentration of DMSO in all wells was 0.1%. The 6-well plate was cultured in an incubator at 37° C. with 5% CO2 for 48 h, and then 30 μL of RIPA lysates (Beyotime, Cat. P0013B) containing protease inhibitors (Beyotime, Cat. P0013B) were added. The mixtures were lysed on ice for 30 min. Centrifugation was carried out at 13000 rpm/min at 4° C. for 20 minutes to collect protein supernatant samples, and protein quantification was performed by the BCA method. Western Blot detection samples were prepared.
Western blot detection: 20 μg of protein samples were added to each well, subjected to polyacrylamide gel electrophoresis and transferred to a membrane, and then diluted anti-EGFR (CST, Cat. 4267S) and […] (Kangchen, Cat. KC-5G4) antibodies were added and incubated overnight at 4° C. After washing the membrane, diluted goat anti-rabbit (Licor, Cat. 926-32211) and goat anti-mouse (Licor, Cat. 926-68070) antibodies were added and incubated in the dark for 45 min. Scanning and detection at wavelengths of 700 nm and 800 nm were performed with a far-infrared imaging system (Odyssey).
According to formula (3), the expression level of EGFR protein in the cells relative to the DMSO control group was calculated after incubation with different concentrations of compounds. wherein EGFRcompound was the fluorescence value of EGFR protein after incubation with compounds, and EGFRvehicle was the fluorescence value of EGFR protein in the DMSO control group. Using the Origin 9.2 software, the drug concentration DC50 values when the expression level of EGFR protein was 50% relative to the DMSO control group were calculated.

T1 sequence (P00533 25-1210 T790M/C797S/L858R): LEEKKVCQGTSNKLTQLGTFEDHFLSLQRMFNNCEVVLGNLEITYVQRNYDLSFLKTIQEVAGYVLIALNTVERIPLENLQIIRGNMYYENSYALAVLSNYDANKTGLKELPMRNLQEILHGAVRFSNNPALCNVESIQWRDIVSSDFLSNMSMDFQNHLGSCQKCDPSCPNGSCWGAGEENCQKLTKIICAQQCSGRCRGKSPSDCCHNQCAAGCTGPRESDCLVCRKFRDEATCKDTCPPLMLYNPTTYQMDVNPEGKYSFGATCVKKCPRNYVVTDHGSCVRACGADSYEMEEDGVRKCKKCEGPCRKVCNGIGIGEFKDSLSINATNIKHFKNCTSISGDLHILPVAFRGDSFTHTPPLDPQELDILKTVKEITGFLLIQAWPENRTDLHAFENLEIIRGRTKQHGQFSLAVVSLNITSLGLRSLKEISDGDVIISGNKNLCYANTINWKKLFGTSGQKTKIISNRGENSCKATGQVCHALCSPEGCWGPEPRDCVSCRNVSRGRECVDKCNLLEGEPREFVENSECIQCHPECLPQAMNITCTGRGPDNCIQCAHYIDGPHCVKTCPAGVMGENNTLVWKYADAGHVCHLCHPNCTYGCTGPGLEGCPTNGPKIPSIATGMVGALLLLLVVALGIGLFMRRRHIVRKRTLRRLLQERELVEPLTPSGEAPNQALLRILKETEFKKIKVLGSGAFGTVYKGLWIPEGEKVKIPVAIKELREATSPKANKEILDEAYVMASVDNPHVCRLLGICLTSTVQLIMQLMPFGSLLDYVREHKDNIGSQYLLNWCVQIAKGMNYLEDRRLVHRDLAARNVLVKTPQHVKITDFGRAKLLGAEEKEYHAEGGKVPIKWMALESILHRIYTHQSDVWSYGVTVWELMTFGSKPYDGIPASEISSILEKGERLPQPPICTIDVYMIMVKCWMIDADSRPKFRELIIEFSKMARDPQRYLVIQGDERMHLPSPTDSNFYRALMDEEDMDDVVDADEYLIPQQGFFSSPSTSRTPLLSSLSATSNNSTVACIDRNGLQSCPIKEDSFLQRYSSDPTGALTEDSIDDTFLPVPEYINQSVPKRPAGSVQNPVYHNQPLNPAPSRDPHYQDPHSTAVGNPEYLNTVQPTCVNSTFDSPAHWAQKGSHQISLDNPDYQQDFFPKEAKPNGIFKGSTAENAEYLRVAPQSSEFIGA

DC50 | SMILES
< 0.1 µM | COc1cc(N2CCC(CN3CCN(c4ccc5c(c4)C(=O)N(C4CCC(=O)NC4=O)C5=O)CC3)CC2)c(-c2cnn(C)c2)cc1Nc1ncc(Br)c(Nc2ccc(C3CC3)cc2P(C)(C)=O)n1 (centres unmarked) [Compound 106, 5-(4-((1-(4-((5-bromo-4-((4-cyclopropyl-2-(dimethylphosphoryl)phenyl)amino)pyrimidin-2-yl)amino)-5-methoxy-2-(1-methyl-1H-pyrazol-4-yl)phenyl)piperidin-4-yl)methyl)piperazin-1-yl)-2-(2,6-dioxopiperidin-3-yl)isoindoline-1,3-dione]
< 0.1 µM | COc1cc(N2CCC(CN3CCN(c4ccc5c(c4)C(=O)N(C4CCC(=O)NC4=O)C5=O)CC3)CC2)c(-c2cnn(C)c2)cc1Nc1ncc(Cl)c(Nc2ccc(C3CC3)cc2P(C)(C)=O)n1 (centres unmarked) [Compound 107, 5-(4-((1-(4-((5-chloro-4-((4-cyclopropyl-2-(dimethylphosphoryl)phenyl)amino)pyrimidin-2-yl)amino)-5-methoxy-2-(1-methyl-1H-pyrazol-4-yl)phenyl)piperidin-4-yl)methyl)piperazin-1-yl)-2-(2,6-dioxopiperidin-3-yl)isoindoline-1,3-dione]
